{
  "source": "patent US10457639B2",
  "about": "“Fluorescent regulators of RASSF1A expression and human cancer cell proliferation” (GEORGETOWN UNIVERSITY, priority 2008, dated 2019)",
  "key": {"[1]": {"tested_on": "human prostate tumor xenografts (PC-3)", "test": "PC-3 human prostate xenograft study", "type": "in vivo, mouse", "details": "athymic Balb/c nude mice, 10 mg/kg IP every other day, over 25 days", "method": "Male athymic Balb/c nude mice were injected with PC-3 cells and the resulting tumors allowed to grow for a week before dosing IP once a day every other day with 10 mg/kg compound 6a or DMSO control in 1:1 PEG/PBS. Data are presented as the mean±SEM (n=4).\nCell Culture for Xenograft. PC-3 cell line (ATCC, Manassas, Va.) was cultured in RPMI-1640 with L-glutamine (Mediatech Inc., Herdon, Va.) containing 5% fetal bovine serum (FBS), 2.5 mM L-glutamine at 37° C. with 5% CO2.\nXenograft Study. Male athymic Balb/c nude mice (18-22 g) were injected with 3×106 (0.3 mL) of the human prostate cancer cells (PC-3). The human prostate cancer cells were injected in the subcutaneous tissue of the right axillary region of the mice. One week after the injection, the mice were randomly sorted into two groups with four mice per group. A stock solution of compound 6a was obtained by dissolving 1 mg of compound in 1 μl DMSO. The stock was added to polyethylene glycol 400 (PEG) (Hampton) and PBS in a 1:1 ratio. The test concentrations were obtained by diluting with PEG/PBS. The tumor-bearing mice received an intraperitoneal injection (IP) with either 10 mg/kg of 6a or vehicle control once every other day for 4 weeks. At the same time, the tumor size of each mouse was measured by caliper and calculated by the formula: Length×width×height/2. […]"}, "wild-type Balb/c mice": {"tested_on": "wild-type Balb/c mice", "test": "Acute oral toxicity up-and-down procedure", "type": "in vivo", "method": "Animals. Balb/c mice and athymic Balb/c nude mice were purchased from the National Cancer Institute (NCI). Animals were housed 4-6 per cage with microisolater tops and provided food (Furina mice chow) and water ad libitum. The light cycle was regulated automatically (12 hours light/dark cycle) and temperature was maintained at 23±1° C. All animals were allowed to acclimate to this environment for one week prior to experimental manipulations. The Georgetown University Animal Care and Use Committee approved all animal studies in accordance with the guidelines adopted by the National Institute of Health.\nThis provided an ample therapeutic index of >55 at a starting efficacy dose of 10 mg/kg. Athymic Balb/c nude mice with human prostate tumor xenografts were dosed via intraperitoneal injection with 10 mg/kg of compound 6a once a day every other day for 25 days. Control mice were dosed with vehicle alone. Compound 6a reduced tumor volume by roughly 40% compared to control over 25 days (FIG. 8)."}, "DNMT3b": {"biological_target": "T1, DNMT3b (Homo sapiens, UniProt Q9UBC3)", "T1 construct": "endogenous in cells; host or cells: PC-3 human prostate cancer cells", "test": "Multiphoton laser imaging, DNMT3b antibody staining", "type": "cell-based", "details": "PC-3 cells, 5 μM", "method": "(A) Fluorescent spectrum of compound 6a; (B) PC-3 cells were treated with a 5 μM solution of compound 6a for 1 hr before being fixed and stained with propidium iodide and DNMT3b antibody; (C) Cells were treated with a 5 μM solution of compound 6a for 6 hr before fixation; (D) Cells were treated with a 5 μM solution of DMSO for 6 hr before fixation. The frames in each set of images are from left to right, top to bottom: propidium iodide; clear field; DNA methyltransferase 3b (DNMT3b); compound 6a or vehicle; and merged. Compound 6a was excited at 725 nm with a multiphoton laser and imaged with a 500-550 nm filter. Arrows indicate representative cells in which DNMT3b is solely in the cytoplasm.\nMultiphoton laser imaging. After incubating slides with a fibronectin/cortactin solution for 30 minutes, PC-3 cells were plated onto the slides and incubated overnight. The cells were then treated with a 5 μM solution of compound 6a or DMSO control and incubated for 1-6 hour before washing with PBS. The slides were fixed with a 4% formaldehyde solution, washed with PBS then treated with propidium iodide (nuclear localization) and DNMT3a or DNMT3b. The compound was excited at 725 nm with a multiphoton laser and imaged with a 500-550 nm filter.\nThe dansyl moiety present in compound 6a allows it to visibly fluoresce at 552 nm when excited at 370 nm (FIG. 4A). […]"}},
  "data": [
    {"smiles": "COc1ccc2c(c1)[nH]c1c(C)c(OS(=O)(=O)c3cccc4c(N(C)C)cccc34)ccc12", "note": "[Compound 6a, 7-Methoxy-1-methyl-9H-carbazol-2-yl 5-(dimethylamino)naphthalene-1-sulfonate]", "values": [
      {"measurement": "reduction of tumor volume compared to control", "setting": "[1]", "value": "roughly 40%"},
      {"measurement": "therapeutic index", "setting": "wild-type Balb/c mice; 550 mg/kg without toxicity versus starting efficacy dose of 10 mg/kg", "value": "> 55"},
      {"measurement": "acute oral toxicity", "setting": "wild-type Balb/c mice; wild-type Balb/c mice dosed up to 550 mg/kg, oral", "value": "no toxicity was observed"},
      {"measurement": "DNMT3b localization", "setting": "DNMT3b; one hour", "value": "a population of treated cells that have DNMT3b only in the cytoplasm"},
      {"measurement": "DNMT3b localization", "setting": "DNMT3b; six hours", "value": "majority of treated cells having DNMT3b only in the cytoplasm"}
    ]}
  ]
}
